Measured values as given in US20230263822A1, “MODULATION OF FACTOR 11 EXPRESSION” (Ionis Pharmaceuticals, Inc., priority 2008, published 2023).
Strand notation (5' to 3'): a small letter for the sugar, then the base; units joined by * are phosphorothioate-linked, units joined directly phosphodiester-linked; [ ] holds rarer units or linkages, { } end groups; capitals alone tell only the bases. e = 2'-O-(2-methoxyethyl) (MOE); [5mC] = 5-methylcytosine; d = 2'-deoxy (DNA)

How the values were obtained:
Type in all cases: cell-based
human Factor 11 mRNA [1] = experiment: Antisense inhibition of human Factor 11 in HepG2 cells, lipofectin, 75 nM (Example 1); details: 75 nM antisense oligonucleotide, ~24 h, relative to untreated control cells
Summary of the method: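 HepG2 cells transfected via lipofectin with 75 nM antisense oligonucleotide (5-10-5 MOE gapmers, 20-mers, phosphorothioate, 5-methylcytidines), treated ~24 h. Factor 11 mRNA quantified by real-time PCR, normalised to RIBOGREEN total RNA; percent inhibition versus untreated cells.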

human Factor 11 mRNA [2] = experiment: Antisense inhibition of human Factor 11 in HepG2 cells by microwalk gapmers, lipofectin, 75 nM (Example 3)
Summary of the method: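 HepG2 cells (10,000/well) were transfected via lipofectin with 75 nM 20-mer MOE gapmers (phosphorothioate, 5-methyl-C) for about 24 h. Factor 11 mRNA was measured by qRT-PCR, normalized to RIBOGREEN total RNA, and given as percent inhibition versus untreated cells.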

human Factor 11 mRNA [3] = experiment: Dose-dependent inhibition of human Factor 11 in HepG2 cells, lipofectin 9.375-75 nM (Example 4)
Summary of the method: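 HepG2 cells transfected via lipofectin with antisense oligonucleotide at 9.375, 18.75, 37.5 or 75 nM for about 16 h. Factor 11 mRNA quantified by real-time RT-PCR (primer probe set RTS 2966) and normalized to total RNA (RIBOGREEN). Results expressed as percent inhibition versus untreated cells.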

human Factor 11 mRNA [4] = experiment: Dose-dependent inhibition of human Factor 11 in HepG2 cells, electroporation 0.7-20 uM (Example 4)
Summary of the method: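 HepG2 cells electroporated with antisense gapmers at 0.7, 2.2, 6.7 and 20 μM, treated ~16 h. Factor 11 mRNA quantified by qRT-PCR (primer probe set RTS 2966), normalised to RIBOGREEN total RNA; expressed as percent inhibition versus untreated control cells.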

human Factor 11 mRNA [5] = experiment: Antisense inhibition of human Factor 11 in HepG2 cells, electroporation, 8,000 nM (Example 30); details: electroporation, 8,000 nM antisense oligonucleotide
Method: These microwalk gapmers were tested in vitro. Cultured HepG2 cells at a density of 20,000 cells per well were transfected using electroporation with 8,000 nM antisense oligonucleotide. After a treatment period of approximately 24 hours, RNA was isolated from the cells and Factor 11 mRNA levels were measured by quantitative real-time PCR. Factor 11 mRNA levels were adjusted according to total RNA content, as measured by RIBOGREEN. Results are presented as percent inhibition of Factor 11, relative to untreated control cells.
The chimeric antisense oligonucleotides in Table 44 were designed as 5-10-5 MOE, 5-8-5 and 6-8-6 MOE gapmers. The first two listed gapmers in Table 44 are the original gapmers (ISIS 416850 and ISIS 416858) from which ISIS 445493-445543 were designed via microwalk, and are designated by an asterisk. The 5-10-5 gapmers are 20 nucleotides in length, wherein the central gap segment is comprised of ten 2′-deoxynucleotides and is flanked on both sides (in the 5′ and 3′ directions) by wings comprising five nucleotides each. The 5-8-5 gapmers are 18 nucleotides in length, wherein the central gap segment is comprised of eight 2′-deoxynucleotides and is flanked on both sides (in the 5′ and 3′ directions) by wings comprising five nucleotides each. The 6-8-6 gapmers are 20 nucleotides in length, wherein the central gap segment is comprised of eight 2′-deoxynucleotides and is flanked on both sides (in the 5′ and 3′ directions) by wings comprising six nucleotides each. For each of the motifs (5-10-5, 5-8-5 and 6-8-6), each nucleotide in the 5′ wing segment and each nucleotide in the 3′ wing segment has a 2′-MOE modification. The internucleoside linkages throughout each gapmer are phosphorothioate (P=S) linkages. All cytidine residues throughout each gapmer are 5-methylcytidines. “Human Target start site” indicates the 5′-most nucleotide to which the gapmer is targeted in the human sequence. “Human Target stop site” indicates the 3′-most nucleotide to which the gapmer is targeted in the human sequence. Each gapmer listed in Table 44 is targeted to SEQ ID NO: 1 (GENBANK Accession No. NM_000128.3). Each gapmer is Table 44 is also fully cross-reactive with the rhesus monkey Factor 11 gene sequence, designated herein as SEQ ID NO: 274 (exons 1-15 GENBANK Accession No. NW_001118167.1). ‘Rhesus monkey start site’ indicates the 5′-most nucleotide to which the gapmer is targeted in the rhesus monkey sequence. ‘Rhesus monkey stop site’ indicates the 3′-most nucleotide to which the gapmer is targeted to the rhesus monkey sequence.

[6] = gapmers targeted to SEQ ID NO: 1

412204 (antisense eT*eT*e[5mC]*eA*eT*dG*dT*d[5mC]*dT*dA*dG*dG*dT*d[5mC]*d[5mC]*eA*e[5mC]*eA*eT*eA) [compound 412204]
% inhibition (human Factor 11 mRNA [1]; [6]): 74%
% inhibition (human Factor 11 mRNA [2]; HepG2, lipofectin, ~24 h, gapmers targeted to nucleobases 656 to 704 of SEQ ID NO: 1): 76%

412215 (antisense eA*eT*eT*e[5mC]*eT*dT*dT*dG*dG*dG*d[5mC]*d[5mC]*dA*dT*dT*e[5mC]*e[5mC]*eT*eG*eG) [compound 412215]
% inhibition (human Factor 11 mRNA [1]; [6]): 81%
% inhibition (human Factor 11 mRNA [2]; HepG2 cells, lipofectin, gapmers targeted to nucleobases 1062 to 1091 of SEQ ID NO: 1): 82%

413474 (antisense eA*eG*e[5mC]*eA*eA*d[5mC]*d[5mC]*dG*dG*dG*dA*dT*dG*dA*dT*eG*eA*eG*eT*eG) [compound 413474]
% inhibition (human Factor 11 mRNA [1]; [6]): 84%
IC50 (human Factor 11 mRNA [3]): 0.028 µM
percent inhibition of Factor 11 at 9.375 nM (human Factor 11 mRNA [3]; 9.375 nM, relative to untreated control cells): 29%
percent inhibition of Factor 11 at 18.75 nM (human Factor 11 mRNA [3]; 18.75 nM, relative to untreated control cells): 44%
percent inhibition of Factor 11 at 37.5 nM (human Factor 11 mRNA [3]; 37.5 nM, relative to untreated control cells): 57%
percent inhibition of Factor 11 at 75 nM (human Factor 11 mRNA [3]; 75 nM, relative to untreated control cells): 67%
% inhibition (human Factor 11 mRNA [2]; HepG2 cells, lipofectin, gapmers targeted to nucleobases 1018 to 1042 of SEQ ID NO: 1): 93%
IC50 (human Factor 11 mRNA [4]): 6.9 µM
percent inhibition of Factor 11 at 0.7 μM (human Factor 11 mRNA [4]; 0.7 μM, relative to untreated control cells): 0%
percent inhibition of Factor 11 at 2.2 μM (human Factor 11 mRNA [4]; 2.2 μM, relative to untreated control cells): 5%
percent inhibition of Factor 11 at 6.7 μM (human Factor 11 mRNA [4]; 6.7 μM, relative to untreated control cells): 52%
percent inhibition of Factor 11 at 20 μM (human Factor 11 mRNA [4]; 20 μM, relative to untreated control cells): 81%

413537 (antisense eA*eG*eA*eA*eA*dT*dA*dT*d[5mC]*d[5mC]*d[5mC]*d[5mC]*dA*dG*dA*e[5mC]*eA*eG*eA*eG) [compound 413537]
% inhibition (human Factor 11 mRNA [1]; gapmers targeted to SEQ ID NO: 2): 16%

445493 (antisense eA*e[5mC]*eA*eG*eT*eT*dT*d[5mC]*dT*dG*dG*d[5mC]*dA*dG*eG*e[5mC]*e[5mC]*eT*e[5mC]*eG) [compound 445493]
Percent inhibition of human Factor 11 mRNA levels (human Factor 11 mRNA [5]): 69%

445494 (antisense e[5mC]*eA*e[5mC]*eA*eG*eT*dT*dT*d[5mC]*dT*dG*dG*d[5mC]*dA*eG*eG*e[5mC]*e[5mC]*eT*e[5mC]) [compound 445494]
Percent inhibition of human Factor 11 mRNA levels (human Factor 11 mRNA [5]): 85%

445495 (antisense eG*e[5mC]*eA*e[5mC]*eA*eG*dT*dT*dT*d[5mC]*dT*dG*dG*d[5mC]*eA*eG*eG*e[5mC]*e[5mC]*eT) [compound 445495]
Percent inhibition of human Factor 11 mRNA levels (human Factor 11 mRNA [5]): 89%

445496 (antisense eT*eG*e[5mC]*eA*e[5mC]*eA*dG*dT*dT*dT*d[5mC]*dT*dG*dG*e[5mC]*eA*eG*eG*e[5mC]*e[5mC]) [compound 445496]
Percent inhibition of human Factor 11 mRNA levels (human Factor 11 mRNA [5]): 87%

445497 (antisense eG*eT*eG*e[5mC]*eA*e[5mC]*dA*dG*dT*dT*dT*d[5mC]*dT*dG*eG*e[5mC]*eA*eG*eG*e[5mC]) [compound 445497]
Percent inhibition of human Factor 11 mRNA levels (human Factor 11 mRNA [5]): 81%

445499 (antisense eT*eG*eG*eT*eG*e[5mC]*dA*d[5mC]*dA*dG*dT*dT*dT*d[5mC]*eT*eG*eG*e[5mC]*eA*eG) [compound 445499]
Percent inhibition of human Factor 11 mRNA levels (human Factor 11 mRNA [5]): 75%

445500 (antisense eT*eT*eG*eG*eT*eG*d[5mC]*dA*d[5mC]*dA*dG*dT*dT*dT*e[5mC]*eT*eG*eG*e[5mC]*eA) [compound 445500]
Percent inhibition of human Factor 11 mRNA levels (human Factor 11 mRNA [5]): 81%

445501 (antisense eA*eT*eT*eG*eG*eT*dG*d[5mC]*dA*d[5mC]*dA*dG*dT*dT*eT*e[5mC]*eT*eG*eG*e[5mC]) [compound 445501]
Percent inhibition of human Factor 11 mRNA levels (human Factor 11 mRNA [5]): 83%

445502 (antisense e[5mC]*eA*eT*eT*eG*eG*dT*dG*d[5mC]*dA*d[5mC]*dA*dG*dT*eT*eT*e[5mC]*eT*eG*eG) [compound 445502]
Percent inhibition of human Factor 11 mRNA levels (human Factor 11 mRNA [5]): 83%

445506 (antisense eA*e[5mC]*eG*eG*e[5mC]*eA*dT*dT*dG*dG*dT*dG*d[5mC]*dA*e[5mC]*eA*eG*eT*eT*eT) [compound 445506]
Percent inhibition of human Factor 11 mRNA levels (human Factor 11 mRNA [5]): 86%

445507 (antisense eG*eA*e[5mC]*eG*eG*e[5mC]*dA*dT*dT*dG*dG*dT*dG*d[5mC]*eA*e[5mC]*eA*eG*eT*eT) [compound 445507]
Percent inhibition of human Factor 11 mRNA levels (human Factor 11 mRNA [5]): 85%
